Test system: CD1 female mouse brain lipidome
Assay: Brain-region lipid levels (HPLC/MS/MS lipidomics) 2 h after single i.p. 3 mg/kg CP 55,940 vs vehicle
Type: in vivo
Parameters: N-arachidonoyl phenylalanine level, Mean / N-stearoyl tryptophan level, Mean / N-stearoyl proline level, Mean / N-stearoyl leucine level, Mean / N-stearoyl phenylalanine level, Mean / N-stearoyl serine level, Mean / N-stearoyl methionine level, Mean: unit: moles per gram
Settings: hippocampus
Description: The Bloomington Institutional Animal Care and Use Committee of Indiana University reviewed and approved the animal procedures. Female mice from the CD1 strain were utilized to match our study examining THC’s effects on the brain lipidome ([Leishman et al., 2018]). Mice were given a single i.p. injection of either 3 mg/kg CP or 1:1:18 cremophor:ethanol:saline vehicle (please refer to the section “3 mg/kg CP Is Relevant for Synthetic Cannabinoid Abuse and Has Stronger Effects on the Female Mouse Brain Lipidome During Adolescence” for a justification of dose and use of female mice). Three different age groups were given injections: PND 35 and PND 50 adolescents, and adult mice (PND 113). At least eight mice in each age group received CP and at least eight received vehicle. Matching the THC study time course ([Leishman et al., 2018]), mice were sacrificed via rapid decapitation 2 h after injection. Brains were immediately removed and flash-frozen in liquid nitrogen, and then stored at -80°C until dissections were performed. Brains were dissected on an ice-cold dissection plate into the following regions: STR, HIPP, CER, THAL, CTX, HYP, MID, and STEM. These abbreviations for these brain areas will be used exclusively when discussing the results generated by these specific dissections. Each dissected area was immediately placed in liquid nitrogen and then stored at -80°C until used for lipid extraction.
Tissue extracts were performed as previously described ([Bradshaw et al., 2006]; [Stuart et al., 2013]; [Raboune et al., 2014]; [Leishman et al., 2016a],[b], [2017], [2018]). First, samples were shock frozen in liquid nitrogen, weighed, and transferred to a centrifuge tube. The mass of the largest sample was multiplied by 50 to determine how many milliliters of HPLC-grade methanol (Fisher, Fair Lawn, NJ, United States) to add. Then, samples were spiked with 500 pmol deuterium-labeled NAGly (d8NAGly; Cayman Chemical, Ann Arbor, MI, United States). Samples were placed on ice in darkness for 2 h then individually homogenized and centrifuged at 19,000 × g for 20 min at 20°C. Supernatants were diluted with HPLC water (purified in house) to make a solution of 75% water, 25% supernatant. Lipids were partially purified on C18 solid phase extraction columns (Agilent, Palo Alto, CA, United States). A series of four elutions with 1.5 mL of 60%, 75%, 85%, and 100% methanol were collected ([Stuart et al., 2013]; [Leishman et al., 2016a],[b], [2018]).
As previously described ([Bradshaw et al., 2006]; [Tan et al., 2006]; [Smoum et al., 2010]; [Stuart et al., 2013]; [Tortoriello et al., 2013]; [Raboune et al., 2014]; [Leishman et al., 2016a],[b], [2017], [2018]), samples were analyzed using an Applied Biosystems API 3000 triple quadrupole mass spectrometer with electrospray ionization (Foster City, CA, United States). Using an Agilent XDB-C18 reversed phase analytical column and optimized mobile phase gradients, 20 μL from each elution were chromatographed. Two Shimadzu 10ADvp pumps (Columbia, MD, United States) provided the pressure for gradient elution. Mobile phase A: 20% methanol, 80% water (v/v) and 1 mM ammonium acetate (Sigma, St. Louis, MO, United States). Mobile phase B: 100% methanol, 1 mM ammonium acetate. Every method run began with 0% mobile phase B, reached 100% mobile phase B flowing at 0.2 mL/min, and gradually returned to 0% mobile phase B.
This screening library will be referred to as the lipidome when discussing data from this study. HPLC/MS/MS data were analyzed using Analyst software (Applied Biosystems) ([Bradshaw et al., 2006]; [Tan et al., 2006]; [Stuart et al., 2013]; [Tortoriello et al., 2013]; [Raboune et al., 2014]; [Leishman et al., 2016a],[b], [2017], [2018]). Chromatograms (Supplementary Figure 3) were generated by determining the retention time of analytes from the analytical column with a [M-1] or [M+1] parent peak and a fragmentation peak corresponding to the programmed values. […]

[1] = PND 35, 3 mg/kg CP 55,940 vs vehicle
[2] = PND 35 WT female mice, 3mg/kg CP 55,940

CCCCCCC(C)(C)c1ccc([C@@H]2C[C@H](O)CC[C@H]2CCCO)c(O)c1 [CP 55,940]
THC level, Mean (adult, 3 mg/kg CP 55,940): BDL | phosphoLEA: Direction (relative to Veh) (adult, 3 mg/kg CP 55,940): ↑ | phosphoLEA: Magnitude (x Veh level) (adult, 3 mg/kg CP 55,940): 1.45 x Veh level | 2-arachidonoyl glycerol: Direction [1]: ↓ | 2-arachidonoyl glycerol: Magnitude [1]: 0.79 | 2-linoleoyl glycerol: Direction [1]: ↓ | 2-linoleoyl glycerol: Magnitude [1]: 0.63 | 2-oleoyl glycerol: Direction [1]: ↓ | 2-oleoyl glycerol: Magnitude [1]: 0.82 | 6-ketoPGF1α: Direction [1]: ↑ | 6-ketoPGF1α: Magnitude [1]: 1.32 | Arachidonic acid: Direction [1]: ↓ | Arachidonic acid: Magnitude [1]: 0.84 | Linoleic acid: Direction [1]: ↓ | Linoleic acid: Magnitude [1]: 0.77 | N-arachidonoyl GABA: Direction [1]: ↓ | N-arachidonoyl GABA: Magnitude [1]: 0.66 | N-arachidonoyl alanine: Direction [1]: ↓ | N-arachidonoyl alanine: Magnitude [1]: 0.76 | N-arachidonoyl ethanolamine: Direction [1]: ↓ | N-arachidonoyl ethanolamine: Magnitude [1]: 0.82 | N-arachidonoyl glycine: Direction [1]: ↓ | N-arachidonoyl glycine: Magnitude [1]: 0.86 | N-arachidonoyl phenylalanine: Direction [1]: ↓ | N-arachidonoyl phenylalanine: Magnitude [1]: 0.76 | N-arachidonoyl serine: Direction [1]: ↓ | N-arachidonoyl serine: Magnitude [1]: 0.49 | N-arachidonoyl taurine: Direction [1]: ↓ | N-arachidonoyl taurine: Magnitude [1]: 0.81 | N-docosahexaenoyl GABA: Direction [1]: ↓ | N-docosahexaenoyl GABA: Magnitude [1]: 0.52 | N-docosahexaenoyl alanine: Direction [1]: ↓ | N-docosahexaenoyl alanine: Magnitude [1]: 0.76 | N-docosahexaenoyl ethanolamine: Direction [1]: ↓ | N-docosahexaenoyl ethanolamine: Magnitude [1]: 0.71 | N-docosahexaenoyl glycine: Direction [1]: ↓ | N-docosahexaenoyl glycine: Magnitude [1]: 0.83 | N-docosahexaenoyl leucine: Direction [1]: ↑ | N-docosahexaenoyl leucine: Magnitude [1]: 1.41 | N-docosahexaenoyl serine: Direction [1]: ↓ | N-docosahexaenoyl serine: Magnitude [1]: 0.74 | N-linoleoyl GABA: Direction [1]: ↓ | N-linoleoyl GABA: Magnitude [1]: 0.55 | N-linoleoyl alanine: Direction [1]: ↓ | N-linoleoyl alanine: Magnitude [1]: 0.82 | N-oleoyl GABA: Direction [1]: ↓ | N-oleoyl GABA: Magnitude [1]: 0.59 | N-oleoyl alanine: Direction [1]: ↓ | N-oleoyl alanine: Magnitude [1]: 0.75 | N-oleoyl ethanolamine: Direction [1]: ↓ | N-oleoyl ethanolamine: Magnitude [1]: 0.77 | N-oleoyl glycine: Direction [1]: ↓ | N-oleoyl glycine: Magnitude [1]: 0.87 | N-oleoyl methionine: Direction [1]: ↓ | N-oleoyl methionine: Magnitude [1]: 0.68 | N-oleoyl valine: Direction [1]: ↑ | N-oleoyl valine: Magnitude [1]: 1.27 | N-palmitoyl alanine: Direction [1]: ↓ | N-palmitoyl alanine: Magnitude [1]: 0.85 | N-palmitoyl ethanolamine: Direction [1]: ↓ | N-palmitoyl ethanolamine: Magnitude [1]: 0.79 | N-palmitoyl leucine: Direction [1]: ↑ | N-palmitoyl leucine: Magnitude [1]: 1.31 | N-palmitoyl phenylalanine: Direction [1]: ↑ | N-palmitoyl phenylalanine: Magnitude [1]: 1.26 | N-palmitoyl tyrosine: Direction [1]: ↑ | N-palmitoyl tyrosine: Magnitude [1]: 1.29 | N-palmitoyl valine: Direction [1]: ↑ | N-palmitoyl valine: Magnitude [1]: 1.24 | N-stearoyl GABA: Direction [1]: ↓ | N-stearoyl GABA: Magnitude [1]: 0.77 | N-stearoyl alanine: Direction [1]: ↓ | N-stearoyl alanine: Magnitude [1]: 0.79 | N-stearoyl glycine: Direction [1]: ↓ | N-stearoyl glycine: Magnitude [1]: 0.87 | N-stearoyl valine: Direction [1]: ↑ | N-stearoyl valine: Magnitude [1]: 1.39 | Oleic acid: Direction [1]: ↓ | Oleic acid: Magnitude [1]: 0.82 | PGF2α: Direction [1]: ↑ | PGF2α: Magnitude [1]: 1.28 | 2-arachidonoyl glycerol level, Mean [2]: 2.47E-10 | 2-linoleoyl glycerol level, Mean [2]: 1.2E-10 | 2-oleoyl glycerol level, Mean [2]: 9.43E-10 | 2-palmitoyl glycerol level, Mean [2]: 7.71E-10 | 6-ketoPGF1α level, Mean [2]: 1.92E-11 | 11-OH-THC level, Mean [2]: BDL | 11-nor-9-carboxyTHC level, Mean [2]: BDL | Arachidonic acid level, Mean [2]: 4.25E-09 | Cannabidiol level, Mean [2]: BDL | Linoleic acid level, Mean [2]: 9.72E-10 | N- stearoyl valine level, Mean [2]: 8.48E-13 | N-arachidonoyl GABA level, Mean [2]: 2.17E-11 | N-arachidonoyl alanine level, Mean [2]: 1.79E-11 | N-arachidonoyl dopamine level, Mean [2]: BDL | N-arachidonoyl ethanolamine level, Mean [2]: 4.75E-11 | N-arachidonoyl glycine level, Mean [2]: 6.69E-11 | N-arachidonoyl methionine level, Mean [2]: PISSR | N-arachidonoyl phenylalanine level, Mean [2]: 1.21E-12 | N-arachidonoyl proline level, Mean [2]: BDL | N-arachidonoyl serine level, Mean [2]: 8.58E-12 | N-arachidonoyl taurine level, Mean [2]: 2.18E-10
